# Laboratory results taken from patent publication US10508120B2, “TYK2 inhibitors and uses thereof” (Nimbus Lakshmi, Inc., priority 2017, dated 2019).
# How the values were obtained:
# [1] = target: JAK2/JAK2 homdimeric complex (Homo sapiens (Human), UniProt O60674); assay: GM-CSF Induced pSTAT5 in Human PBMC; format: cell-based; details: GM-CSF 5 ng/mL for 20 minutes, pSTAT5 by MSD, read-out: PBMC_GMCSF_pSTAT5 IC50
# Tyk2 kinase domain (DH1) = Tyk2 kinase domain (DH1) (Homo sapiens (Human), UniProt P29597); assay: Tyk2 Radioactive Kinase Assay; format: biochemical; details: 10 μM compound; 10 μM ATP; read-out: Tyk2 JH1% Inhibition @ 10 μM
# Chain of Tyk2 kinase domain (DH1) (P29597 897-1176): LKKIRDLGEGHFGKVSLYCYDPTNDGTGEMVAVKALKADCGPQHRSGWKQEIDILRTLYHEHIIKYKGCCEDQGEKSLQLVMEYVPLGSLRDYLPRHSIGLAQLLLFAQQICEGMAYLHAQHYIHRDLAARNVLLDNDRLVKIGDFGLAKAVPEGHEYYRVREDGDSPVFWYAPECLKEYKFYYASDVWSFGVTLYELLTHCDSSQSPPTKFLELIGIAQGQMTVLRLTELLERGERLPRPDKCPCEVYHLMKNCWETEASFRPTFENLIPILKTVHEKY
# Procedure, shortened: (§1)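 Read-out is percent inhibition from a radioactive kinase reaction, measured with compound at 10 μM.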
# [2] = target: human TYK2 (JH2domain-pseudokinase) (Homo sapiens (Human), UniProt P29597); assay: TYK2 JH2 Domain Binding Assay (KINOMEscan)
# Chain of human TYK2 (JH2domain-pseudokinase) (P29597 556-888): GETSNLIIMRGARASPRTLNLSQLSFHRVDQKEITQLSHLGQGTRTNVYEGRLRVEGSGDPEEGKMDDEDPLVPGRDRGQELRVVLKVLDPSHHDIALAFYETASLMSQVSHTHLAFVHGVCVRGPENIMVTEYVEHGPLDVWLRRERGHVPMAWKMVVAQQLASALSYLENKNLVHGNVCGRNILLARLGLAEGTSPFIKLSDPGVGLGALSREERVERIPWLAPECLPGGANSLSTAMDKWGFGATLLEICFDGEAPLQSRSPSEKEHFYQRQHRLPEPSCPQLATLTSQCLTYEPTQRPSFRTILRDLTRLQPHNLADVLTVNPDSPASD
# Procedure, shortened: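 Kds, run in duplicate, came from Hill fits (slope fixed at −1) of an 11-point 3-fold dilution series starting at 30,000 nM. Bead-retained TYK2 JH2 (aa G556–D888)–NFkB DBD fusion, DNA-tagged and expressed in HEK293 cells, was read by qPCR after 1 h room-temperature binding in 0.9% DMSO.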
# JAK2 kinase domain (JH1) = JAK2 kinase domain (JH1) (Homo sapiens (Human), UniProt O60674); assay: JAK2 Radioactive Kinase Assay; format: biochemical; details: 10 μM compound; 10 μM ATP; read-out: JAK2 JH1% Inhibition @ 10 μM
# Chain of JAK2 kinase domain (JH1) (O60674 849-1124): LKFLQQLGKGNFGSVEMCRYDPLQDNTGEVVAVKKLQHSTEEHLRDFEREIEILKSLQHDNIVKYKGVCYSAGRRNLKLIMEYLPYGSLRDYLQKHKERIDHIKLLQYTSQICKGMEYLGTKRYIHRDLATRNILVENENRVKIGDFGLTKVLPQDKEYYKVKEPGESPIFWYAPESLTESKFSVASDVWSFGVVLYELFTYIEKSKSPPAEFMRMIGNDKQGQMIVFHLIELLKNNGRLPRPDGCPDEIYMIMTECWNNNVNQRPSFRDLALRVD
# Procedure, shortened: as §1
# [3] = target: Tyk2/JAK2 (heterodimeric complex) (Homo sapiens (Human), UniProt P29597); assay: IL-12 Induced pSTAT4 in Human PBMC; format: cell-based; details: 1.7 ng/mL IL-12
# Chain of Tyk2/JAK2 (heterodimeric complex) (P29597 whole entry, other chains not shown): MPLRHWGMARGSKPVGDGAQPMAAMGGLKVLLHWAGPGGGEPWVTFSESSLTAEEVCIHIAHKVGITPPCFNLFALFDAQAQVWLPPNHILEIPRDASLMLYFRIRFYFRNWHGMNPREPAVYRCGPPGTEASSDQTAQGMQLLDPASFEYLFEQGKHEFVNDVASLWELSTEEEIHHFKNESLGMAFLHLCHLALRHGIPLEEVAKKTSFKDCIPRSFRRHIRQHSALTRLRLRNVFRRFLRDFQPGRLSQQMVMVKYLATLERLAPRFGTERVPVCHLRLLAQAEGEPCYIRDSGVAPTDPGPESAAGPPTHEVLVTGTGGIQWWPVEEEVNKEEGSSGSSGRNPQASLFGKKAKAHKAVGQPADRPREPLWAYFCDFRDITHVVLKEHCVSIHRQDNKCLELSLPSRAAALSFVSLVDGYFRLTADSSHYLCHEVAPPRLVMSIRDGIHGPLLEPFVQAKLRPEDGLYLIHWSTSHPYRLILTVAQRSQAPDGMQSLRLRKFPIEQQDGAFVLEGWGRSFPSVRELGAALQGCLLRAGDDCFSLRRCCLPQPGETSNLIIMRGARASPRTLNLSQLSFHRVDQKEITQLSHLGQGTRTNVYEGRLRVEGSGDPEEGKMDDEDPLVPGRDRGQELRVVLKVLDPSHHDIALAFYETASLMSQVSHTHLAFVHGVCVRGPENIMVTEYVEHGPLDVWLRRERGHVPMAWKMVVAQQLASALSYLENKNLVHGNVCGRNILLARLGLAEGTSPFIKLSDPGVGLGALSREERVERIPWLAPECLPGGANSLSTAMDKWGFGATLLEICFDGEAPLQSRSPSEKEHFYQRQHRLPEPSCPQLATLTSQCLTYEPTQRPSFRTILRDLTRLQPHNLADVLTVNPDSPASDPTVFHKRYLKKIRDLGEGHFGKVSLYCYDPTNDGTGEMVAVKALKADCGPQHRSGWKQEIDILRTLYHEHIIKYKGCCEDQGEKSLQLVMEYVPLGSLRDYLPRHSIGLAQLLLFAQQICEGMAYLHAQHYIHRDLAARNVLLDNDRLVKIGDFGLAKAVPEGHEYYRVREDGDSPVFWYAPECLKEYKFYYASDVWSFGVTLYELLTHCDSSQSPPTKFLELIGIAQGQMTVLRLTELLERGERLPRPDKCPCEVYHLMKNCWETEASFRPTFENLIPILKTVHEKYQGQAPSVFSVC
# Text: The IL-12 Induced pSTAT4 assay evaluates the inhibition of IL-12 induced STAT4 phophorylation mediated by Tyk2/JAK2 (heterodimeric complex).
# Chain of JAK2/JAK2 homdimeric complex (O60674 whole entry, the tested form may be a part): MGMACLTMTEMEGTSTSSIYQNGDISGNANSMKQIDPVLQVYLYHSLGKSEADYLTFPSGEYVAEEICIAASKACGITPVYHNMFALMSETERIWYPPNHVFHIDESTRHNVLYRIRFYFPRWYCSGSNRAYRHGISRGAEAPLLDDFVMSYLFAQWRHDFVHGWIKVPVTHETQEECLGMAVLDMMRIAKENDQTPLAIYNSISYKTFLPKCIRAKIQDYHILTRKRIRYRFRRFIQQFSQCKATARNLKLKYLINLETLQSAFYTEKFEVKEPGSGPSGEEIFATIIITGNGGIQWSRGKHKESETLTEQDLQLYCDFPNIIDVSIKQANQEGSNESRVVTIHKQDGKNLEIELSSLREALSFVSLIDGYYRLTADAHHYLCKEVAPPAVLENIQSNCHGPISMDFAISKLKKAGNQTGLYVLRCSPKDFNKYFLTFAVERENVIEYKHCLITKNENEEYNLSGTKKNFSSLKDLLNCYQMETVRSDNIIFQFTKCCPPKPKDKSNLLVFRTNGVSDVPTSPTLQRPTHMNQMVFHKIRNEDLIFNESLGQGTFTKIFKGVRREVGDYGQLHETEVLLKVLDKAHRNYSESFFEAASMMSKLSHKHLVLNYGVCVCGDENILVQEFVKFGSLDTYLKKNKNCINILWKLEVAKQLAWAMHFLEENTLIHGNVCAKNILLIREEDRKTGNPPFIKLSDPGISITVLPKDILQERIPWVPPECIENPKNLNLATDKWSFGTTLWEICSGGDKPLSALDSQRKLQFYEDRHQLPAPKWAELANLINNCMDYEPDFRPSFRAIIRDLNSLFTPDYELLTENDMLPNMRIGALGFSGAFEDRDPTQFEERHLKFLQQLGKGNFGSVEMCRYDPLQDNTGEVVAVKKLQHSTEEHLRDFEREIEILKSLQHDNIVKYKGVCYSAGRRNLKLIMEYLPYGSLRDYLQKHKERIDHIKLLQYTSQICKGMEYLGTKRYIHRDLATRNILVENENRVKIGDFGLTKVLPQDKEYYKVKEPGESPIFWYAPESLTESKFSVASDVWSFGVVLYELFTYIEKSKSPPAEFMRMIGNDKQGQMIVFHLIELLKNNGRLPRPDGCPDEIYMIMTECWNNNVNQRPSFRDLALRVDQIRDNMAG
# Chain of JAK2/JAK2 homdimeric complex (P32927 17-897 partner): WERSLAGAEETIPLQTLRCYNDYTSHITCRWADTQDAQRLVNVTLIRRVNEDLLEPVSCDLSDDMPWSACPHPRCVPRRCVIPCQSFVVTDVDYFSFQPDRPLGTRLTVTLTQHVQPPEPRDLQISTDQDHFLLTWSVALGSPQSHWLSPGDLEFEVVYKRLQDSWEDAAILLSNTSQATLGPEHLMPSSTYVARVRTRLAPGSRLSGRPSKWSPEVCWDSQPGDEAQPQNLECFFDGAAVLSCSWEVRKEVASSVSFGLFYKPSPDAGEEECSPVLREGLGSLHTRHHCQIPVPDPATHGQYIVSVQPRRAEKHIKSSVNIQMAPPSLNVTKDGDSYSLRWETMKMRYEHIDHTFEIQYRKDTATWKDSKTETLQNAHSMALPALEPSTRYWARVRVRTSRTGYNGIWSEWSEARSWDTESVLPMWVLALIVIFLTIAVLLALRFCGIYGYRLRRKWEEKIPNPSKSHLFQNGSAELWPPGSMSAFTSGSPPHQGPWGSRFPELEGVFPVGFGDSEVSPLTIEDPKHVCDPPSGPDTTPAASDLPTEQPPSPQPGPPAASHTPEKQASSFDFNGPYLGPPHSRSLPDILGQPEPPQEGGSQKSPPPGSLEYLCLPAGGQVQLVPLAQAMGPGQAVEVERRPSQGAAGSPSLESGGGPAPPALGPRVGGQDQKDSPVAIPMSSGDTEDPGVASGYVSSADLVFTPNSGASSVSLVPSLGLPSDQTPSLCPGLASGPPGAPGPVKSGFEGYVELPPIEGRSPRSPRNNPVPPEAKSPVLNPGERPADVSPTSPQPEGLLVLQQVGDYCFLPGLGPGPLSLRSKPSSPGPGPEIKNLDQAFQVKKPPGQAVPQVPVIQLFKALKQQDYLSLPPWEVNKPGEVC
Structure (SMILES),IC50 [1] [µM],inhibition at 10 µM (Tyk2 kinase domain (DH1)) [%],Kd [2] [nM],inhibition at 10 µM (JAK2 kinase domain (JH1)) [%],IC50 [3] [nM]
CNc1cc(Nc2cccn([C@H]3CC[C@@H]3O)c2=O)nc2c(C(=O)N[C@H]3CC[C@@H]3OC)cnn12 [I-1094],> 50,< 50,< 0.2,< 50,
CNc1cc(Nc2cccn([C@@H]3CCCN(CCF)C3)c2=O)nc2c(C(=O)N[C@@H]3CC[C@H]3OC)cnn12 [I-1095],> 50,< 50,< 0.2,< 50,
"CNc1cc(Nc2cccn([C@@H]3CCN(CCF)C3)c2=O)nc2c(C(=O)NC3CCC3OC)cnn12 (stereo partly drawn) [I-1096, 5-((1-((R)-1-(2-fluoroethyl)pyrrolidin-3-yl)-2-oxo-1,2-dihydropyridin-3-yl)amino)-N-(2-methoxycyclobutyl)-7-(methylamino)pyrazolo[1,5-a]pyrimidine-3-carboxamide]",> 50,< 50,< 0.2,< 50,
CNc1cc(Nc2cccn([C@H]3CCCC[C@H]3OC)c2=O)nc2c(C(=O)N[C@H]3CC[C@@H]3OC)cnn12 [I-1097],> 50,< 50,< 0.2,< 50,
CNc1cc(Nc2cccn([C@H]3CCC[C@H](OC)C3)c2=O)nc2c(C(=O)N[C@H]3CC[C@@H]3OC)cnn12 [I-1098],> 50,< 50,< 0.2,< 50,
CNc1cc(Nc2cccn([C@@H]3CCC[C@@H](OC)C3)c2=O)nc2c(C(=O)N[C@H]3CC[C@@H]3OC)cnn12 [I-1099],> 50,< 50,< 0.2,< 50,
CNc1cc(Nc2cccn([C@H]3CCC[C@H]3O)c2=O)nc2c(C(=O)N[C@H]3CC[C@@H]3OC)cnn12 [I-1101],> 50,< 50,< 0.2,< 50,
CNc1cc(Nc2cccn([C@H]3CC[C@](C)(OC)CC3)c2=O)nc2c(C(=O)N[C@H]3CC[C@@H]3OC)cnn12 [I-1105],> 50,< 50,< 0.2,< 50,
CNc1cc(Nc2cccn3cnnc23)nc2c(C(=O)N[C@H]3CC[C@@H]3OC)cnn12 [I-1343],,,,,< 100
CNc1cc(Nc2cccn(-c3cnn(C)c3F)c2=O)nc2c(C(=O)N[C@H]3CC[C@@H]3OC)cnn12 [I-1369],,,,,< 100
CNc1cc(Nc2cccn([C@H]3CCC[C@H]3O)c2=O)nc2c(C(=O)N[C@H]3CC[C@@H]3OC)cnn12 [I-1373],,,,,< 100
CNc1cc(Nc2cccn([C@H]3CCCC[C@H]3OC)c2=O)nc2c(C(=O)N[C@H]3CC[C@@H]3OC)cnn12 [I-1377],,,,,< 100

# The remaining lines, values ahead:
IC50 [1] [µM],inhibition at 10 µM (Tyk2 kinase domain (DH1)) [%],Kd [2] [nM],inhibition at 10 µM (JAK2 kinase domain (JH1)) [%],IC50 [3] [nM],Structure (SMILES)
> 50,< 50,< 0.2,< 50,,CNc1cc(Nc2cccn(-c3ccccc3F)c2=O)nc2c(C(=O)N[C@H]3CC[C@@H]3O)cnn12 [I-1038]
> 2.5,< 50,< 0.2,< 50,,CNc1cc(Nc2cccn([C@H]3CCC[C@H](OC)C3)c2=O)nc2c(C(=O)N[C@@H]3CC3F)cnn12 (some centres unmarked) [I-1042]
> 2.5,< 50,< 0.2,< 50,,"CNc1cc(-c2cn(C3CCOCC3)c3ncccc23)nc2c(C(=O)NC3CCC3O)cnn12 (centres unmarked) [I-1048, N-(2-hydroxycyclobutyl)-7-(methylamino)-5-(1-(tetrahydro-2H-pyran-4-yl)-1H-pyrrolo[2,3-b]pyridin-3-yl)pyrazolo[1,5-a]pyrimidine-3-carboxamide]"
> 50,< 50,< 0.2,< 50,,"CNc1cc(Nc2cccn([C@H]3CCN(CCF)C3)c2=O)nc2c(C(=O)N[C@H]3CC[C@@H]3OC)cnn12 [I-1050, 5-((1-((S)-1-(2-fluoroethyl)pyrrolidin-3-yl)-2-oxo-1,2-dihydropyridin-3-yl)amino)-N-((1 S,2S)-2-methoxycyclobutyl)-7-(methylamino)pyrazolo[1,5-a]pyrimidine-3-carboxamide]"
> 50,< 50,< 0.2,< 50,,"CNc1cc(Nc2cccc3ocnc23)nc2c(C(=O)NC3CC[C@@H]3OC)cnn12 (some centres unmarked) [I-1051, 5-(benzo[d]oxazol-4-ylamino)-N-(2-methoxycyclobutyl)-7-(methylamino) pyrazolo[1,5-a]pyrimidine-3-carboxamide]"
> 50,< 50,< 0.2,< 50,,CNc1cc(Nc2cccn3ccnc23)nc2c(C(=O)N[C@H]3CC[C@@H]3OC)cnn12 [I-1052]
> 12.5,< 50,< 0.2,< 50,,"CNc1cc(-c2cn(C(C)C)c3ncc(F)cc23)nc2c(C(=O)N[C@H]3CC[C@@H]3OC)cnn12 [I-1053, 5-(5-fluoro-1-isopropyl-1H-pyrrolo[2,3-b]pyridin-3-yl)-N-((1S,2S)-2-methoycyclobutyl)-7-(methylamino)pyrazolo[1,5-a]pyrimidine-3-carboxamide]"
> 50,< 50,< 0.2,< 50,,CNc1cc(Nc2cccn([C@H]3CCCC[C@H]3O)c2=O)nc2c(C(=O)N[C@@H]3CC[C@H]3OC)cnn12 [I-1057]
> 50,< 50,< 0.2,< 50,,CNc1cc(Nc2cccn([C@H]3CCCN(CCF)C3)c2=O)nc2c(C(=O)N[C@@H]3CC[C@H]3OC)cnn12 [I-1059]
> 50,< 50,< 0.2,< 50,,CNc1cc(Nc2cccn([C@H]3CCC[C@H](O)C3)c2=O)nc2c(C(=O)N[C@H]3CC[C@@H]3OC)cnn12 [I-1063]
> 50,< 50,< 0.2,< 50,,CNc1cc(Nc2cccn(-c3cnn(C)c3F)c2=O)nc2c(C(=O)N[C@H]3CC[C@@H]3OC)cnn12 [I-1066]
> 12.5,< 50,< 0.2,< 50,,CNc1cc(Nc2cccn(-c3ncc(C)s3)c2=O)nc2c(C(=O)N[C@@H]3CC[C@H]3O)cnn12 [I-1070]
> 50,< 50,< 0.2,< 50,,CNc1cc(Nc2cccn(-c3ncc(C)s3)c2=O)nc2c(C(=O)N[C@@H]3CC[C@@H]3O)cnn12 [I-1073]
> 50,< 50,< 0.2,< 50,,CNc1cc(Nc2cccn([C@@H]3CCC[C@H](OC)C3)c2=O)nc2c(C(=O)N[C@@H]3CC[C@H]3OC)cnn12 [I-1082]
> 50,< 50,< 0.2,< 50,,CNc1cc(Nc2cccn([C@@H]3CC[C@H]3O)c2=O)nc2c(C(=O)N[C@H]3CC[C@@H]3OC)cnn12 [I-1093]
> 2.5,< 50,< 0.2,< 50,,CNc1cc(Nc2cccn3cnnc23)nc2c(C(=O)N[C@H]3CC[C@@H]3OC)cnn12 [I-1102]
> 2.5,< 50,< 0.2,< 50,,CNc1cc(Nc2cccn([C@H]3CC[C@](C)(OC)CC3)c2=O)nc2c(C(=O)N[C@@H]3CC[C@H]3O)cnn12 [I-1107]
